Our source for the TGI values is PubChem BioAssay (NCI).

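Briefly, cells in 96-well plates were exposed to five compound concentrations for 48 h, and endpoints were estimated by linear interpolation. The concentration for full growth arrest is given as TGI.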 Some results are limits rather than exact numbers.

Assay in all cases: NCI tumour cell line growth inhibition, 48 h
Experiment [1] has as its system IGROV1 ovarian.
Experiment [2] has as its system OVCAR-3 ovarian.
For experiment [3], the system named is OVCAR-4 ovarian.
In experiment [4] the test system is MDA-MB-231 breast.
Experiment [5] concerns OVCAR-8 ovarian.
The subject of experiment [6] is HOP-92 NSCLC.
Experiment [7] relates to K-562 leukemia.
Experiment [8] has as its system MDA-MB-435.
Experiment [9] deals with CCRF-CEM leukemia.
Experiment [10] relates to MOLT-4 leukemia.
For experiment [11], the system named is UACC-62 melanoma.
In experiment [12] the test system is RXF 393 renal.
In experiment [13] the test system is SK-MEL-2 melanoma.

For the molecule `COc1ccc(-c2nc3ccc(C)cc3o2)c(OC)c1`, the TGI was 76.3 µM in experiment [1]; 46.9 µM in experiment [2]; 74.1 µM in experiment [3]; 50.5 µM in experiment [4]; 77.1 µM in experiment [5]; above 66.8 µM in experiment [6]. The TGI in [7] was above 64.5 µM; in experiment [8], 52.9 µM; in experiment [9], 65.8 µM; in [10], 52.9 µM; in [11] it was 70.2 µM; in experiment [12], 53.8 µM. The TGI in experiment [13] is 71.7 µM.
Turning to `COc1cc2c(cc1OC)-c1cc3ccccc3c(=O)n1CCC2`, the TGI in experiment [1] was 66 µM; in [2] it was 60.4 µM; in experiment [3], above 100 µM; in experiment [4], 57.2 µM; in experiment [5], 61.2 µM; in [6], 68.3 µM. The TGI in [7] was above 81.9 µM; in experiment [8] it was above 53.7 µM; in [9] it was 33.9 µM; in experiment [10], 10.4 µM; in [11], 36.5 µM; in [12] it was 57.5 µM. In experiment [13], this molecule returned a TGI of 86.6 µM.
As for `CN1N=C(c2ccncc2)OC1c1ccc(Cl)c(Cl)c1` (centres undefined), the TGI in experiment [1], in experiment [2], in experiment [3], in experiment [4], in [5] and in experiment [6] was above 100 µM throughout. For the same molecule, the TGI in experiment [7], in experiment [8], in [9], in [10], in experiment [11] and in experiment [12] was above 100 µM each time. Moreover, the TGI in [13] is above 100 µM.
`CS(=O)(=O)C(=Cc1ccccc1Cl)S(C)(=O)=O`: the TGI in [1], in experiment [2], in experiment [3], in experiment [4], in experiment [5] and in experiment [6] was above 100 µM each time. For the same molecule, the TGI in [7], in [8], in [9], in experiment [10], in [11] and in experiment [12] was above 100 µM in each case. For the same molecule, the TGI in [13] is above 100 µM.
Take `CCCCc1ccc(Nc2nc(Cl)c3[nH]cnc3n2)cc1`: the TGI in [1] was 71.8 µM; in experiment [2] it was 28.9 µM; in experiment [3] it was above 100 µM; in experiment [4] it was 30.2 µM; in [5], 37.3 µM; in experiment [6] it was 26.3 µM. Further, the TGI is above 100 µM in [7]; 32.1 µM in [8]; above 100 µM in experiment [9]; above 100 µM in experiment [10]; 31.9 µM in experiment [11]; 31.6 µM in experiment [12]. In experiment [13], this molecule came in with a TGI of 31 µM.
Regarding `CCCCNc1nc(SC)nc2nc[nH]c12`, the TGI in experiment [1], in experiment [2], in experiment [3], in [4], in [5] and in experiment [6] was above 100 µM each time. Moreover, the TGI in experiment [7], in [8], in experiment [9], in [10], in [11] and in experiment [12] was above 100 µM throughout. In experiment [13], this molecule displayed a TGI above 100 µM.
Take `COC(=O)[C@]1(c2cc3ccccc3[nH]2)CC2CN(CC(=O)N(C)OC)C1C1OC(C)(C)OC21` (some centres undefined): the TGI in experiment [1], in experiment [2], in experiment [3], in experiment [4], in [5] and in experiment [6] was above 100 µM in each case. The TGI in [7] is above 100 µM; in experiment [8], above 100 µM; in experiment [9], above 100 µM; in experiment [10], 49.9 µM; in experiment [11], above 100 µM; in [12], above 100 µM. In experiment [13], the TGI is above 100 µM.
Regarding `CC[C@H](CCCCC1CC[C@@H]2CC(=O)C[C@H]12)OC` (some centres undefined), the TGI in [1], in experiment [2], in [3], in experiment [4], in experiment [5] and in experiment [6] was above 100 µM throughout. The TGI in [7], in [8], in experiment [9], in experiment [10], in experiment [11] and in experiment [12] was above 100 µM each time. Also, the TGI in experiment [13] was above 100 µM.
With `COC(=O)C1=NN2c3ccccc3CN([C@@H](C)c3ccccc3)C(=O)[C@@H]2C1`, the TGI is above 100 µM in experiment [1]; 97.9 µM in experiment [2]; 26.1 µM in experiment [3]; above 100 µM in [4]; above 100 µM in [5]; above 100 µM in experiment [6]. Moreover, the TGI in [7] was 76.6 µM; in [8], 34 µM; in experiment [9] it was above 100 µM; in [10] it was 46.5 µM; in experiment [11], 66.8 µM; in [12], above 100 µM. In addition, in [13], the TGI stood at 74.1 µM.
Take `Cc1ccc(S(=O)(=O)C2=c3ncccc3=C3C(=O)c4ccccc4C(=O)C32)cc1` (centres undefined): the TGI in experiment [1] was above 62.2 µM; in experiment [2], above 100 µM; in [3] it was 64.4 µM; in experiment [4] it was above 100 µM; in [5] it was above 100 µM; in experiment [6], above 89.5 µM. Further, the TGI was above 100 µM in experiment [7]; above 100 µM in experiment [8]; above 100 µM in experiment [9]; above 100 µM in experiment [10]; 69.7 µM in experiment [11]; above 31.6 µM in experiment [12]. In experiment [13], the TGI is above 100 µM.
With `CNC(=O)N(CCC#N)CCN(CCN(C(=O)NC)c1ccccc1)C(=O)NC`, the TGI in experiment [1], in experiment [2], in [3], in [4], in [5] and in experiment [6] was above 100 µM throughout. Besides, the TGI in [7], in [8], in experiment [9], in experiment [10], in [11] and in experiment [12] was above 100 µM throughout. In experiment [13], this molecule came in with a TGI above 100 µM.
As to `Cc1ccc(S(=O)(=O)n2ccn3c(=O)cc(C)nc23)cc1`, the TGI in experiment [1], in experiment [2], in experiment [3], in [4], in experiment [5] and in experiment [6] was above 10 µM throughout. The TGI in experiment [7], in experiment [8], in [9], in experiment [10], in experiment [11] and in experiment [12] was above 10 µM in each case. The molecule further registered a TGI in [13] above 10 µM.
Regarding `Cc1cc2c3c(ccc4ncc(c43)CN2c2ccc(NS(C)(=O)=O)cc2)[nH]1`, the TGI is above 100 µM in experiment [1]; 81.5 µM in [2]; above 100 µM in experiment [3]; 68.1 µM in experiment [4]; above 100 µM in [5]; 92.2 µM in experiment [6]. The TGI in experiment [7], in experiment [8], in [9], in experiment [10], in [11] and in experiment [12] was above 100 µM each time. This molecule also yielded a TGI in [13] above 100 µM.
Regarding `CC(C)(C)OC(=O)C(C1NC(C(=O)O)C(C)(C)S1)N1C(=O)c2ccccc2C1=O` (centres undefined), the TGI in experiment [1], in [2], in [3], in experiment [4], in experiment [5] and in experiment [6] was above 100 µM throughout. The TGI in [7], in experiment [8], in experiment [9], in experiment [10], in experiment [11] and in experiment [12] was above 100 µM throughout. In addition, in experiment [13], the TGI is above 100 µM.
On to `O=C(O)/C(=C\c1ccccc1)Cc1ccccc1`, for which the TGI in experiment [1], in experiment [2], in experiment [3], in experiment [4], in experiment [5] and in experiment [6] was above 100 µM in each case. Further, the TGI in experiment [7], in experiment [8], in experiment [9], in experiment [10], in [11] and in experiment [12] was above 100 µM in each case. Also, the TGI in experiment [13] is above 100 µM.
As to `O=S(=O)(Nc1ccccc1S(=O)(=O)c1ccccc1)c1ccccc1`, the TGI in experiment [1], in experiment [2], in experiment [3], in [4], in experiment [5] and in [6] was above 100 µM each time. Besides, the TGI in experiment [7], in experiment [8], in experiment [9], in [10], in experiment [11] and in [12] was above 100 µM in each case. The molecule also displayed a TGI in experiment [13] above 100 µM.
Take `COc1cc(CNC(=O)CCCCCCCC/C=C/Br)ccc1O`: the TGI in experiment [1], in [2], in experiment [3], in [4], in experiment [5] and in experiment [6] was above 10 µM throughout. Besides, the TGI in experiment [7], in experiment [8], in experiment [9], in [10], in experiment [11] and in experiment [12] was above 10 µM throughout. In experiment [13], this molecule returned a TGI above 10 µM.
With `COc1cc(OC)c(/C=N/N=C(\N)NO)c(OC)c1`, the TGI in [1], in [2], in experiment [3], in experiment [4], in experiment [5] and in experiment [6] was above 100 µM throughout. The TGI in [7], in [8], in experiment [9], in experiment [10], in experiment [11] and in experiment [12] was above 100 µM each time. In [13], this molecule returned a TGI above 100 µM.
